Measured values as given in patent US9718790B2, “Triazine derivative and pharmaceutical composition having an analgesic activity comprising the same” (SHIONOGI & CO., LTD., priority 2010, dated 2017).
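Note: stimulus was 50 nM ATP with fluorescence followed for 3 min, and the response per well was peak post-ATP fluorescence divided by the reading at measurement start.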

These compounds were tested against human P2X3 receptor (Homo sapiens (Human), UniProt P56373) (assay: Evaluation of human P2X3 receptor inhibitory activity (Fluo-3 calcium fluorescence, FDSS 3000, ATP stimulation)). Conditions: C6BU-1 cells stably expressing human P2X3 receptor.
Chain of human P2X3 receptor (P56373 whole entry): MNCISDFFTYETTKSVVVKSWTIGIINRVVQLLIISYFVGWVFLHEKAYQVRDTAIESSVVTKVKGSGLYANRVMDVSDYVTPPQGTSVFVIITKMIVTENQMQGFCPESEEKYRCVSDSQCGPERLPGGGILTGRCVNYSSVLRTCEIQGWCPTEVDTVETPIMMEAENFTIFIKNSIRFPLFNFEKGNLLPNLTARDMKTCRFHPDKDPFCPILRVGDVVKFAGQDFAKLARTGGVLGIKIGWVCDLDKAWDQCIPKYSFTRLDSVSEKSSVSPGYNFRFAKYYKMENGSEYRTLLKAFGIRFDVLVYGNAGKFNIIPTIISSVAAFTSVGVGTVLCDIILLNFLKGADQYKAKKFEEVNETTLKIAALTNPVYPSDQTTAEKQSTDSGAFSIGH
Assay type: cell-based
With Cc1ccc(Cn2c(=O)n(CCC(=O)O)c(=O)[nH]/c2=N\c2cc(C(F)(F)F)ccc2C)cc1 [Compound I-2082] the IC50 was 833 nM.
In the case of CCn1c(=O)[nH]/c(=N\c2ccc(Oc3cncc(C(N)=O)c3)cc2)n(Cc2ccc(F)cc2)c1=O [Compound I-2120], the IC50 is reported as 33 nM.
For CCn1c(=O)[nH]/c(=N\c2ccc(Oc3cc(CO)on3)cc2)n(Cc2ccc(Cl)cc2)c1=O [Compound I-1968], the IC50 was 15 nM.
Cc1ccc(Cn2c(=O)n(C[C@H](C)C(=O)O)c(=O)[nH]/c2=N\c2ccc(CC(C)C)nc2)cc1 [Compound I-1359] was tested, and the IC50 was 724 nM.
CCOc1ccc(/N=c2\[nH]c(=O)n(C[C@H](C)C(=O)O)c(=O)n2Cc2ccc(Cl)cc2)cc1F [Compound I-0609] showed an IC50 of 31 nM.
Compound CCn1c(=O)[nH]/c(=N\c2ccc(Oc3cc(C(=O)OC)on3)cc2)n(Cc2ccc(Cl)cc2)c1=O [Compound I-1941] has an IC50 of 5 nM.
With COc1cc(/N=c2\[nH]c(=O)n(CCC(=O)O)c(=O)n2Cc2ccc(C)cc2)ccc1OC(C)C [Compound I-1264] the IC50 was 31 nM.
CC(C)c1cccc(/N=c2\[nH]c(=O)n(C[C@H](C)C(=O)O)c(=O)n2Cc2ccc(Cl)cc2)c1 [Compound I-0792] gave an IC50 of 170 nM.
COC(=O)[C@@H](C)[C@@H](C)n1c(=O)[nH]/c(=N\c2ccc(OC(C)C)c(F)c2)n(Cc2ccc(C)cc2)c1=O [Compound I-1311] was tested, and the IC50 was 23 nM.
Work on Cc1cc(/N=c2\[nH]c(=O)n(C(C)(C)CC(=O)O)c(=O)n2Cc2ccc(Cl)cc2)ccc1OC(C)C [Compound I-0804] yielded an IC50 of 132 nM.
Compound Cc1ccc(Cn2c(=O)n([C@H](C)[C@H](C)C(=O)O)c(=O)[nH]/c2=N\c2ccc(N3CCCCC3)cc2)cc1 [Compound I-1459] has an IC50 of 34 nM.
Work on COC(=O)C(C)(C)Cn1c(=O)[nH]/c(=N\c2ccc(OCC3CC3)cc2)n(Cc2ccc(C)cc2)c1=O [Compound I-1242] yielded an IC50 of 15 nM.
In the case of CC(C)Oc1ccc(/N=c2\[nH]c(=O)n(CCC(=O)O)c(=O)n2CC2CCC3(CC2)CC3)cc1Cl [Compound I-1461], the IC50 is reported as 25 nM.
For CCOC(=O)COc1ccc(/N=c2\[nH]c(=O)n(CC)c(=O)n2Cc2ccc(Cl)cc2)cc1 [Compound I-1989], the IC50 was 619 nM.
CCn1c(=O)[nH]/c(=N\c2ccc(Oc3ccc(C(=O)OC)nc3)cc2)n(Cc2ccc(C)cc2)c1=O [Compound I-2106] showed an IC50 of 2 nM.
Work on COC(=O)[C@@H](C)Cn1c(=O)[nH]/c(=N\c2ccc3c(c2)CCCC3)n(Cc2ccc(Cl)cc2)c1=O [Compound I-0791] yielded an IC50 of 266 nM.
CC[C@@H](C)Oc1ccc(/N=c2\[nH]c(=O)n(C[C@H](C)C(=O)OC)c(=O)n2Cc2ccc(Cl)cc2)cc1 [Compound I-0727] showed an IC50 of 12 nM.
C[C@@H](Oc1ccc(/N=c2\[nH]c(=O)n(CCC(N)=O)c(=O)n2Cc2ccc(Cl)cc2)cc1)C(F)(F)F [Compound I-1956] was tested, and the IC50 was 34 nM.
With CC(C)Oc1ccc(/N=c2\[nH]c(=O)n(CCNCCO)c(=O)n2Cc2ccc(Cl)cc2)cc1F [Compound I-2122] the IC50 was 93 nM.
CCCc1ccc(/N=c2\[nH]c(=O)n(C[C@H](C)C(=O)O)c(=O)n2Cc2ccc(C)cc2)cc1C [Compound I-1212] was tested, and the IC50 was 90 nM.
Work on C[C@@H](Cn1c(=O)[nH]/c(=N\c2ccc3oc(C(=O)O)cc3c2)n(Cc2ccc(Cl)cc2)c1=O)C(=O)O [Compound I-1952] yielded an IC50 of 781 nM.
Compound CCc1nc2ccc(/N=c3\[nH]c(=O)n(C[C@H](C)C(=O)O)c(=O)n3Cc3ccc(Cl)cc3)cc2o1 [Compound I-1382] has an IC50 of 257 nM.
Compound CCn1c(=O)[nH]/c(=N\c2ccc(Oc3cncc(C(N)=O)c3)cc2)n(CC2CCC3(CC2)CC3)c1=O [Compound I-2178] has an IC50 of 5 nM.

Same assay, conditions: C6BU-1 cells stably expressing human P2X3 receptor, Fluo-3 fluorescence, FDSS 3000
Cc1ccc(Cn2c(=O)n(C[C@H](C)C(=O)O)c(=O)[nH]/c2=N\c2ccc(OC(F)F)cc2)cc1 [Compound I-1161] gave an IC50 of 148 nM.
CC(C)N1C(=O)Cc2cc(/N=c3\[nH]c(=O)n([C@@H](C)[C@@H](C)C(=O)O)c(=O)n3Cc3ccc(Cl)cc3)ccc21 [Compound I-1779] was tested, and the IC50 was 203 nM.
With COc1cc(/N=c2\[nH]c(=O)n(C[C@H](C)C(=O)O)c(=O)n2Cc2ccc(C)cc2)ccc1OC(C)C [Compound I-1135] the IC50 was 18 nM.
Cc1ccc(Cn2c(=O)n(C[C@H](C)C(=O)O)c(=O)[nH]/c2=N\c2ccc(Cl)c(C(F)(F)F)c2)cc1 [Compound I-1003] showed an IC50 of 229 nM.
With CCCc1nc2ccc(/N=c3\[nH]c(=O)n([C@@H](C)[C@@H](C)C(=O)O)c(=O)n3Cc3ccc(Cl)cc3)cc2s1 [Compound I-1792] the IC50 was 20 nM.
For O=C(O)CCn1c(=O)[nH]/c(=N\c2ccc(Oc3ccc(F)cc3)cc2)n(Cc2ccc(Cl)cc2)c1=O [Compound I-1877], the IC50 was 36 nM.
C[C@@H](C(=O)O)[C@H](C)n1c(=O)[nH]/c(=N\c2ccc3c(c2)CCO3)n(Cc2ccc(Cl)cc2)c1=O [Compound I-1833] showed an IC50 of 580 nM.
C[C@H](Oc1ccc(/N=c2\[nH]c(=O)n(C[C@H](C)C(=O)O)c(=O)n2Cc2ccc(Cl)cc2)cc1)C(F)(F)F [Compound I-0933] was tested, and the IC50 was 82 nM.
CCc1nc2ccc(/N=c3\[nH]c(=O)n(CCO)c(=O)n3Cc3ccc(Cl)cc3)cc2s1 [Compound I-1663] was tested, and the IC50 was 8 nM.
In the case of CC(C)Oc1ccc(/N=c2\[nH]c(=O)n(CCC(=O)O)c(=O)n2CCC2C[C@H]3CC[C@@H]2C3)cc1F (stereo partly drawn) [Compound I-1729], the IC50 is reported as 669 nM.
CCn1c2ccccc2c2cc(/N=c3\[nH]c(=O)n([C@@H](C)[C@@H](C)C(=O)O)c(=O)n3Cc3ccc(Cl)cc3)ccc21 [Compound I-1815] gave an IC50 of 367 nM.
Cc1oc2ccc(/N=c3\[nH]c(=O)n(C[C@H](C)C(=O)O)c(=O)n3Cc3ccc(Cl)cc3)cc2c1C [Compound I-1653] gave an IC50 of 14 nM.
Work on CCc1nc2ccc(/N=c3\[nH]c(=O)n(CCCC(N)=O)c(=O)n3Cc3ccc(Cl)cc3)cc2s1 [Compound I-1711] yielded an IC50 of 5 nM.
Compound Cc1ccc(Cn2c(=O)n(C[C@H](C)C(=O)O)c(=O)[nH]/c2=N\c2ccc(Cl)c(Cl)c2)cc1 [Compound I-1004] has an IC50 of 85 nM.
Work on CC[C@H](C)Oc1ccc(/N=c2\[nH]c(=O)n(C[C@H](C)C(=O)OC)c(=O)n2Cc2ccc(C)cc2)cc1Cl [Compound I-1016] yielded an IC50 of 17 nM.
CCOc1ccc(/N=c2\[nH]c(=O)n([C@@H](C)[C@@H](C)C(=O)OC)c(=O)n2Cc2ccc(Cl)cc2)cc1Cl [Compound I-0916] was tested, and the IC50 was 19 nM.
In the case of COC(=O)[C@@H](C)Cn1c(=O)[nH]/c(=N\c2ccc(CC3CCCC3)cc2)n(Cc2ccc(Cl)cc2)c1=O [Compound I-1097], the IC50 is reported as 141 nM.
Cc1nc2ccc(/N=c3\[nH]c(=O)n(CCC(N)=O)c(=O)n3Cc3ccc(Cl)cc3)cc2s1 [Compound I-1670] gave an IC50 of 7 nM.
Work on CCc1oc2ccc(/N=c3\[nH]c(=O)n(CC4(C(=O)O)CC4)c(=O)n3Cc3ccc(C)cc3)cc2c1C [Compound I-1555] yielded an IC50 of 16 nM.
Work on COC(=O)CC1(Cn2c(=O)[nH]/c(=N\c3ccc(OC(C)C)c(C)c3)n(Cc3ccc(C)cc3)c2=O)CC1 [Compound I-0980] yielded an IC50 of 11 nM.
In the case of O=c1[nH]/c(=N\c2ccc(Oc3cncc(F)c3)cc2)n(Cc2ccc(Cl)cc2)c(=O)n1CCCO [Compound I-1596], the IC50 is reported as 4 nM.
CCc1nc2ccc(/N=c3\[nH]c(=O)n(CC(=O)O)c(=O)n3Cc3ccc(Cl)cc3)cc2s1 [Compound I-1798] was tested, and the IC50 was 150 nM.
In the case of COC(=O)[C@@H](C)Cn1c(=O)[nH]/c(=N\c2ccc(OCC(C)(C)C)cc2)n(Cc2ccc(C)cc2)c1=O [Compound I-1050], the IC50 is reported as 389 nM.
Cc1ccc(Cn2c(=O)n(CCC(=O)O)c(=O)[nH]/c2=N\c2cn(C)nc2C(=O)NC(C)C)cc1 [Compound I-1839] showed an IC50 of 107 nM.
Compound COC(=O)[C@@H](O)Cn1c(=O)[nH]/c(=N\c2ccc(OC(C)C)c(C)c2)n(Cc2ccc(Cl)cc2)c1=O [Compound I-0994, (S)-1-(4-chlorobenzyl)-6-(3-mehyl-4-isopropoxyphenylimino)-3-(2-methoxycarbonyl-2-hydroxyethyl)-1,3,5-triazinane-2,4-dion] has an IC50 of 20 nM.
For COC(=O)[C@@H](C)Cn1c(=O)[nH]/c(=N\c2ccc(OC(C)C)c(C)c2)n(Cc2ccc(C(C)C)cc2)c1=O [Compound I-0997], the IC50 was 680 nM.

Same assay, conditions: human P2X3 receptor, Test Example 1
Work on CC(CO)(CO)Cn1c(=O)[nH]/c(=N\c2ccc(Oc3cccc(F)n3)cc2)n(Cc2ccc(F)cc2)c1=O [Compound I-2526] yielded an IC50 of 8 nM.
For COC(=O)[C@@H](C)Cn1c(=O)[nH]/c(=N\c2ccc(OCC(C)C)c(C)c2)n(Cc2ccc(C)cc2)c1=O [Compound I-0832], the IC50 was 103 nM.
CCOC(=O)Cn1c(=O)[nH]/c(=N\c2ccc(Oc3nc(C)ns3)cc2)n(Cc2ccc(Cl)cc2)c1=O [Compound I-2570] was tested, and the IC50 was 5 nM.
CCOC(=O)Cn1c(=O)[nH]/c(=N\c2ccc(Oc3ccnnc3)cc2)n(Cc2ccc(Cl)cc2)c1=O [Compound I-2664] was tested, and the IC50 was 3 nM.
Cn1c(=O)[nH]/c(=N\c2ccc(Oc3nccc(C(=O)O)n3)cc2)n(Cc2ccc(Cl)cc2)c1=O [Compound I-2405] gave an IC50 of 62 nM.
O=c1[nH]/c(=N\c2ccc(Oc3cnsn3)cc2)n(Cc2ccc(Cl)cc2)c(=O)n1C[C@H](O)CO [Compound I-2479] was tested, and the IC50 was 8 nM.
With CCCOc1ccc(/N=c2\[nH]c(=O)n(CCCC(=O)OCC)c(=O)n2Cc2ccc(C)cc2)cc1Cl [Compound I-0861] the IC50 was 19 nM.
Compound CCn1c(=O)[nH]/c(=N\c2ccc(Oc3ccc(NCC(=O)O)nc3)cc2)n(Cc2ccc(Cl)cc2)c1=O [Compound I-2622] has an IC50 of 5 nM.
Cc1ccc(Cn2c(=O)n(C[C@H](C)C(=O)O)c(=O)[nH]/c2=N\c2ccc(OCC(C)C)c(C)c2)cc1 [Compound I-0836] was tested, and the IC50 was 95 nM.
In the case of CCOC(=O)C1(Cn2c(=O)[nH]/c(=N\c3ccc4nc(CC)sc4c3)n(Cc3ccc(Cl)cc3)c2=O)CC1 [Compound I-1539], the IC50 is reported as 4 nM.
In the case of Cc1cnc(Oc2ccc(/N=c3\[nH]c(=O)n(CC(O)CO)c(=O)n3Cc3ccc(Cl)cc3)cc2)s1 (stereo not drawn) [Compound I-2456], the IC50 is reported as 8 nM.
Cc1cc(Oc2ccc(/N=c3\[nH]c(=O)n(C[C@@H](O)CO)c(=O)n3Cc3ccc(Cl)cc3)cc2)no1 [Compound I-2229] showed an IC50 of 23 nM.
With CCCOc1ccc(/N=c2\[nH]c(=O)n([C@H](C)CC(=O)O)c(=O)n2Cc2ccc(C)cc2)cc1Cl [Compound I-0880] the IC50 was 49 nM.
For CCOc1c(Cl)cc(/N=c2\[nH]c(=O)n(C[C@H](C)C(=O)OC)c(=O)n2Cc2ccc(C)cc2)cc1Cl [Compound I-1499], the IC50 was 19 nM.
